According to ChEMBL document CHEMBL5465560, “Selectivity Literature for EUbOPEN Chemogenomic Library” (2024):

Assays:
[1] = biological target: T1, Serine/threonine-protein kinase DCLK1 (Homo sapiens) (UniProt O15075); assay: Selectivity interaction (KinomeScan (DiscoverX)) EUB0001079a DCLK1; conditions: at 1 µM
T1 sequence (whole entry): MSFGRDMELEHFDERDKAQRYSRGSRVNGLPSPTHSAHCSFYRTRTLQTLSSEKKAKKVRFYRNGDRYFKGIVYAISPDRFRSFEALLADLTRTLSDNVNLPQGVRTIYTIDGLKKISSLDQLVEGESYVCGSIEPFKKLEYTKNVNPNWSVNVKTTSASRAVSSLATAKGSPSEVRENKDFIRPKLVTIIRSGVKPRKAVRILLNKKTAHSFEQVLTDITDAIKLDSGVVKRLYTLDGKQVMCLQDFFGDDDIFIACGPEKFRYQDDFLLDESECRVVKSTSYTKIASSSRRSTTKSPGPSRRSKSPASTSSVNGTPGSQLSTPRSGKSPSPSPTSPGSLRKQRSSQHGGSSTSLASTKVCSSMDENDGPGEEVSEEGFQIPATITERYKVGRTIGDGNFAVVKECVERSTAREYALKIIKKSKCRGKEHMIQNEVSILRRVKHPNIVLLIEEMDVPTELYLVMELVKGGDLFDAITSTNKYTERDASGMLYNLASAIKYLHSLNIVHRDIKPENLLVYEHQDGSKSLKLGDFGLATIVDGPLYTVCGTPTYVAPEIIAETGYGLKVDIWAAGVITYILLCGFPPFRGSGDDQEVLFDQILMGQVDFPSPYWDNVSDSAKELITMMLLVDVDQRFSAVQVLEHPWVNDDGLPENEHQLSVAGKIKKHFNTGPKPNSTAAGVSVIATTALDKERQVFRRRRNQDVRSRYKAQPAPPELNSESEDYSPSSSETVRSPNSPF

[2] = biological target: Microtubule-associated serine/threonine-protein kinase 1 (Homo sapiens) (UniProt Q9Y2H9); assay: Selectivity interaction (ActivX KiNativ screen (kinase selectivity in THP-1 cell lysates)) EUB0000639a MAST1; format: subcellular; conditions: lysate
Microtubule-associated serine/threonine-protein kinase 1 (Homo sapiens), sequence (Q9Y2H9 whole entry, looked up): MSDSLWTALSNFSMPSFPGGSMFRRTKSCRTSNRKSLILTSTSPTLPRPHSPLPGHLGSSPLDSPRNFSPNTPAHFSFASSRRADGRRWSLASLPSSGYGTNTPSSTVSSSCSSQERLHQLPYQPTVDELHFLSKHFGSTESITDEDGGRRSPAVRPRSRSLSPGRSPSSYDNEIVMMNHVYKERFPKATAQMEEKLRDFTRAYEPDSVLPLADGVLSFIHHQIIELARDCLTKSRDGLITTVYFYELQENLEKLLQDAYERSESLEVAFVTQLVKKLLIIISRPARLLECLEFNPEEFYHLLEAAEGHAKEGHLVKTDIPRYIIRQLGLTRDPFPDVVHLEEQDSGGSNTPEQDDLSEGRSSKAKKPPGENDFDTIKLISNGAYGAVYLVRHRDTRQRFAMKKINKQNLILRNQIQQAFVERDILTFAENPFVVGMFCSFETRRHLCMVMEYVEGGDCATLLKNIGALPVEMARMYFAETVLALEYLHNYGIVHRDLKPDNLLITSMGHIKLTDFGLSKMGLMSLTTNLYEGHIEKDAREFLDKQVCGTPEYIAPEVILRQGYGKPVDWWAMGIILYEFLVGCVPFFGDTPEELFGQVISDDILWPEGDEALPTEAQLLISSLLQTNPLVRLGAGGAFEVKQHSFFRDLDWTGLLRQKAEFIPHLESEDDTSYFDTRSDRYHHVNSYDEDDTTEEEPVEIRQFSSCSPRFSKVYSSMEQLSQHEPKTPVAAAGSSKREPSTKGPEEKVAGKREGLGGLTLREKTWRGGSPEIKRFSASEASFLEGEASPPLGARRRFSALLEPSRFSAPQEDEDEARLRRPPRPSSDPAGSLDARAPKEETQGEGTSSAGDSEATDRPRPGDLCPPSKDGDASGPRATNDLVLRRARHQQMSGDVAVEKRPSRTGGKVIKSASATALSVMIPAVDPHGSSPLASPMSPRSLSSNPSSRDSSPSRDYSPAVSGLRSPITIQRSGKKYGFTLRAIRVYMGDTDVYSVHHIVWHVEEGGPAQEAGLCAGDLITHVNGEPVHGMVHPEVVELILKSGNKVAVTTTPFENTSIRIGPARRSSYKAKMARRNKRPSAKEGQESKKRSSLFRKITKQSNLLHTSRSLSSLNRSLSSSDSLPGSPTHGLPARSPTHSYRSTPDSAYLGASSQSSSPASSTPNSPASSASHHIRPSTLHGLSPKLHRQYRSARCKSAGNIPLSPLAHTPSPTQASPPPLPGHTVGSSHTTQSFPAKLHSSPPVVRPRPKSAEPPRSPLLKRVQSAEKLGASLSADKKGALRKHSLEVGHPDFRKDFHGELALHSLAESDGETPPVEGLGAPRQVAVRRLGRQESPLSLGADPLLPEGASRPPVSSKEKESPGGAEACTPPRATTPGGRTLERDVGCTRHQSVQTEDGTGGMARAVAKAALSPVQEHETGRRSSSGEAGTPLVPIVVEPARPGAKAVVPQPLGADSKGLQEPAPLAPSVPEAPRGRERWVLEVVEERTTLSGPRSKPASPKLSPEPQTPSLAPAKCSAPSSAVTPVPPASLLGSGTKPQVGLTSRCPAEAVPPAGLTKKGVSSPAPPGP

[3] = biological target: T2, Serine/threonine-protein kinase TNNI3K (Homo sapiens) (UniProt Q59H18); assay: Selectivity interaction (KinomeScan (DiscoverX)) EUB0000607a TNNI3K; conditions: at 10 µM
T2 sequence (whole entry): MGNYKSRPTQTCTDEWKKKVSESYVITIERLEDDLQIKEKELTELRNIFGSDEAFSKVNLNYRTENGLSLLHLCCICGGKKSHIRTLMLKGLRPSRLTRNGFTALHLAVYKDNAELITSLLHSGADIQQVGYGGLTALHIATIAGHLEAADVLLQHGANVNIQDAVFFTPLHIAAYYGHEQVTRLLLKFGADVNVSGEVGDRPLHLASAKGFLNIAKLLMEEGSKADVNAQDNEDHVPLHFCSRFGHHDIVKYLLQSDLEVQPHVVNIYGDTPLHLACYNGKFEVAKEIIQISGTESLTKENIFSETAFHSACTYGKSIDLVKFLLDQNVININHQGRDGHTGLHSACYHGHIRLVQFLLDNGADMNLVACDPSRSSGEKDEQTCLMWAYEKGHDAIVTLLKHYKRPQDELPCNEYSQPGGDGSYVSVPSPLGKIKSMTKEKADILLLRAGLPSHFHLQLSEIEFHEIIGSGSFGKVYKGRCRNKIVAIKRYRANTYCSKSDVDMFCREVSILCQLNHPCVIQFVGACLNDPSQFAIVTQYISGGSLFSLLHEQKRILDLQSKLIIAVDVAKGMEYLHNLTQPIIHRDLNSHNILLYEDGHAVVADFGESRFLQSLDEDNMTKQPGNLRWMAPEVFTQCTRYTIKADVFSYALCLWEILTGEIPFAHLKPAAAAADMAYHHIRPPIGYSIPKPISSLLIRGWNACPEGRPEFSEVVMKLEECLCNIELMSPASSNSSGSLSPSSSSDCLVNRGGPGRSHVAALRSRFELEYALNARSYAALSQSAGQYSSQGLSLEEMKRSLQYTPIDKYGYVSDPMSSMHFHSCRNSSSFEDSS

[4] = biological target: T3, Discoidin domain-containing receptor 2 (Homo sapiens) (UniProt Q16832); assay: Selectivity interaction (KinomeScan (DiscoverX)) EUB0000607a DDR2; conditions: at 10 µM
T3 sequence (whole entry): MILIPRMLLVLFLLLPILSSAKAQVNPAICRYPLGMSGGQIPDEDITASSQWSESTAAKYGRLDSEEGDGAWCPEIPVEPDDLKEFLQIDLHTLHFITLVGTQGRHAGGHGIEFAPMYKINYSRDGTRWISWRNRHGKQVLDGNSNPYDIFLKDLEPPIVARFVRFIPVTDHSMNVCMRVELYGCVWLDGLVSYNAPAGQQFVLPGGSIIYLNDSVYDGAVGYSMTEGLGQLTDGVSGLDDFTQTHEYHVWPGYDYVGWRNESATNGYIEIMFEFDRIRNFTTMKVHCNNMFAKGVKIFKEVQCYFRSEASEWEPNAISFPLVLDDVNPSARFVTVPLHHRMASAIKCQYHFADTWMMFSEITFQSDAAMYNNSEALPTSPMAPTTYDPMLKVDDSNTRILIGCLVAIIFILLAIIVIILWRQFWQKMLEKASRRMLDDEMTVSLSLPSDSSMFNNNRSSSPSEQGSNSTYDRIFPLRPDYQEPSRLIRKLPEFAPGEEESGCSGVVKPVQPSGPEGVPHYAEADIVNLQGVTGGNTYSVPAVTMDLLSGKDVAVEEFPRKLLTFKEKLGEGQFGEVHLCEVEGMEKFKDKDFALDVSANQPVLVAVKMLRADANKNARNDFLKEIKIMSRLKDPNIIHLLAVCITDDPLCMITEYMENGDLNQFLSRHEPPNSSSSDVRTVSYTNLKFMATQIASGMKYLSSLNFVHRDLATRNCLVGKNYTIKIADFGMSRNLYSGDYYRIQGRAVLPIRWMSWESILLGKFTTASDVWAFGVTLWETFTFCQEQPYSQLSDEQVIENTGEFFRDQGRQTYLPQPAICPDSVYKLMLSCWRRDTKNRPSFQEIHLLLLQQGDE

Question: How did the % of control [1] turn out when `Nc1cnc(N2CCc3cc(S(=O)(=O)Nc4c(F)cc(Cl)cc4F)cc(N4CCCC4=O)c32)nc1` [TP-020n] was run?
Answer: 100%

Question: How did the % of inhibition ([2]; at 0.01 µM) turn out when `CC[C@@H]1[C@H](F)C(=O)N[C@@H]1COc1nccc2cc(C(N)=O)c(OC)cc12` [ZIMLOVISERTIB] was run?
Answer: -0.4%

Question: What about the % of inhibition ([2]; at 0.04 µM) of the same molecule?
Answer: -2.4%

Question: What about the % of inhibition ([2]; at 0.2 µM) of the same molecule?
Answer: -2.5%

Question: What about the % of inhibition ([2]; at 1 µM) of the same molecule?
Answer: -1.4%

Question: And the % of inhibition ([2]; at 5 µM)?
Answer: -30.3%

Question: Which results are given for `CNC(=O)Nc1ccc(-c2nc(N3CC4CCC(C3)O4)c3cnn(C4CCC5(CC4)OCCO5)c3n2)cc1`?
Answer: % of control [3]: 59%; % of control [4]: 100%
